This passage reports IC50 results from patent EP4722213A1, “NITROGEN-CONTAINING FUNCTIONAL GROUP-SUBSTITUTED PYRIDAZINOPYRIDONE DERIVATIVE AND USE THEREOF” (Sichuan Huiyu Pharmaceutical Co., Ltd., priority 2023, dated 2024).

Counter-ions that a name gives are not always drawn.

For this assay, the target named is T1, SOS1 (Homo sapiens, UniProt Q07889).
T1 sequence (Q07889 1-1333): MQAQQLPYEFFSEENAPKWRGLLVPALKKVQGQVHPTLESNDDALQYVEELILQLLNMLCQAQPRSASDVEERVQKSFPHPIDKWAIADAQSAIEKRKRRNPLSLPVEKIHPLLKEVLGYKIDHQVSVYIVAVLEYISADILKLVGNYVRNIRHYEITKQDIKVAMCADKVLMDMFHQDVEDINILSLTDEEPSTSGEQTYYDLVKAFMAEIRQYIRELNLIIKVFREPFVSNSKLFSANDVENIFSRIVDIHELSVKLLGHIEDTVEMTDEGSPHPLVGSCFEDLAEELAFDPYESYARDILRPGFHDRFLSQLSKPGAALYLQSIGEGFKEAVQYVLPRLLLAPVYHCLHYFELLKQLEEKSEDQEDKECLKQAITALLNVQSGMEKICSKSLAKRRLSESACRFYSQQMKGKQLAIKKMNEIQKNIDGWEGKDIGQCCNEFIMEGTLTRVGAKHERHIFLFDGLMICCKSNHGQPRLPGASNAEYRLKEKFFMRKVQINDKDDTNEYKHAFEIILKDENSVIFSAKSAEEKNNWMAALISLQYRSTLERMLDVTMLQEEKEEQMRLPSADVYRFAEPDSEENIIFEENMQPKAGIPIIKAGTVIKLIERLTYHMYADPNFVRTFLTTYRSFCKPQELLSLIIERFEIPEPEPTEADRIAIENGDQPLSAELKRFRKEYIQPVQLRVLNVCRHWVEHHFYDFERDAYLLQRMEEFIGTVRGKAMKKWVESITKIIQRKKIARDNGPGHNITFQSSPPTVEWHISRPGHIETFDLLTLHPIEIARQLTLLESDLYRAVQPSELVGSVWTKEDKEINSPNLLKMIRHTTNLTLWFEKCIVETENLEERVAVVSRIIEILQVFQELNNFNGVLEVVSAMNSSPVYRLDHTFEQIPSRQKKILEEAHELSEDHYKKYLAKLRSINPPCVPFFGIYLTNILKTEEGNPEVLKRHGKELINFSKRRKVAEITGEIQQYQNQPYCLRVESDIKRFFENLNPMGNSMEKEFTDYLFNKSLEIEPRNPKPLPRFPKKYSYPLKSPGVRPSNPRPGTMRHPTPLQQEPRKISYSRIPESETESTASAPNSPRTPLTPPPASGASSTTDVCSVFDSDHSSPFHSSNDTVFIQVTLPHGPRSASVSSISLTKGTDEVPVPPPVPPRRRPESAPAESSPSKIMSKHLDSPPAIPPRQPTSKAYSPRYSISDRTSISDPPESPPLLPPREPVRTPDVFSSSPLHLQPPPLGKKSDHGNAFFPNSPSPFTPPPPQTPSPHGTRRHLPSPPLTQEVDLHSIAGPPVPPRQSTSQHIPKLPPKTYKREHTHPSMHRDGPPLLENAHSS
Briefly: biochemical.
With `C[C@@H](Nc1nnc(N2CCC3(CCCC3)CC2)c2cc(=O)n(C3(C)CC3)cc12)c1cccc(C(F)F)c1F` [Example 185, (R)-4-((1-(3-(difluoromethyl)-2-fluorophenyl)ethyl)amino)-6-(1-methylcyclopropyl)-1-(8-azaspiro[4.5]decan-8-yl)pyrido[3,4-d]pyridazin-7(6H)-one], the concentration for half-maximal inhibition (IC50) (as a rule, the concentration that gives 50% inhibition) worked out at 84.3 nM.
In turn, `Cc1c(C#N)cccc1[C@@H](C)Nc1nnc(N2CCC2)c2cc(=O)n(C3(C)CC3)cc12` [Example 70, (R)-3-(1-((1-(azetidin-1-yl)-6-(1-methylcyclopropyl)-7-oxo-6,7-dihydropyrido[3,4-d]pyridazin-4-yl)amino)ethyl)-2-methylbenzonitrile] yielded an IC50 of 6.7 nM.
Molecule `C[C@@H](Nc1nnc(N2CCC3(CCC3)CC2)c2cc(=O)n(C3(C)CC3)cc12)c1cccc(C(F)F)c1F` [Example 184, (R)-4-((1-(3-(difluoromethyl)-2-fluorophenyl)ethyl)amino)-6-(1-methylcyclopropyl)-1-(7-azaspiro[3.5]nonan-7-yl)pyrido[3,4-d]pyridazin-7(6H)-one] came in with an IC50 of 40.2 nM. Compared with the last molecule, the IC50 is about 6-fold higher.
`C[C@@H](Nc1nnc(N2CC(CO)C2)c2cc(=O)n(C3(C)CC3)cc12)c1cccc(C(F)F)c1F` [Example 131, (R)-4-((1-(3-(difluoromethyl)-2-fluorophenyl)ethyl)amino)-1-(3-(hydroxymethyl)azetidin-1-yl)-6-(1-methylcyclopropyl) pyrido[3,4-d]pyridazin-7(6H)-one]: the IC50 worked out at 4.6 nM.
The result for `C[C@@H](Nc1nnc(N2CC3CCC(C2)O3)c2cc(=O)n(C3(C)CC3)cc12)c1cccc(C(F)F)c1F` [Example 198, 1-(8-oxa-3-azabicyclo[3.2.1]octan-3-yl)-4-(((R)-1-(3-(difluoromethyl)-2-fluorophenyl)ethyl)amino)-6-(1-methylcyclopropyl) pyrido[3,4-d]pyridazin-7(6H)-one] reads 13.6 nM; that for `Cc1c(C#N)cccc1[C@@H](C)Nc1nnc(N2CC(F)(F)C2)c2cc(=O)n(C3CC3)cc12` [Example 41, (R)-3-(1-((6-cyclopropyl-1-(3,3-difluoroazetidin-1-yl)-7-oxo-6,7-dihydropyrido[3,4-d]pyridazin-4-yl)amino)ethyl)-2-methylbenzonitrile], 57.9 nM; that for `Cc1c(C#N)cccc1[C@@H](C)Nc1nnc(N2CCN(C)CC2)c2cc(=O)n(C3CCN(C)CC3)cc12` [Example 135, (R)-2-methyl-3-(1-((1-(4-methylpiperazin-1-yl)-6-(1-methylpiperidin-4-yl)-7-oxo-6,7-dihydropyrido[3,4-d]pyridazin-4-yl)amino)ethyl)benz onitrile formate], 14.1 nM.
Consider `C[C@@H](Nc1nnc(N2CCN(C3CCCC3)CC2)c2cc(=O)n(C3CC(F)(F)C3)cc12)c1cccc(C(F)F)c1F` [Example 106, (R)-6-(3,3-difluorocyclobutyl)-4-((1-(3-(difluoromethyl)-2-fluorophenyl)ethyl)amino)-1-(4-cyclopentylpiperazin-1-yl)pyrido[3,4-d]pyridazin-7(6H)-one], for which the IC50 came out at 5.2 nM. This IC50 lies about 2.7-fold lower than the previous one.
`Cc1c([C@@H](C)Nc2nnc(N3CCC(F)(F)C3)c3cc(=O)n(C4(C)CC4)cc23)cccc1C(F)(F)F` [Example 67, (R)-1-(3,3-difluoropyrrolidin-1-yl)-4-((1-(2-methyl-3-(trifluoromethyl)phenyl)ethyl)amino)-6-(1-methylcyclopropyl) pyrido[3,4-d]pyridazin-7(6H)-one] yielded an IC50 of 29 nM.
`Cc1c(C#N)cccc1[C@@H](C)Nc1nnc(N2CCS(=O)(=O)CC2)c2cc(=O)n(C3CC3)cc12` [Example 44, (R)-3-(1-((6-cyclopropyl-1-(1,1-dioxidothiomorpholino)-7-oxo-6,7-dihydropyrido[3,4-d]pyridazin-4-yl)amino)ethyl)-2-methylbenzonitrile] showed a half-maximal inhibitory concentration (IC50) of 44.2 nM.
`Cc1c(C#N)cccc1[C@@H](C)Nc1nnc(N2CCCC2)c2cc(=O)n(C3CC3)cc12` [Example 37, (R)-3-(1-((6-cyclopropyl-7-oxo-1-(pyrrolidin-1-yl)-6,7-dihydropyrido[3,4-d]pyridazin-4-yl)amino)ethyl)-2-methylbenzonitrile] came in with a half-inhibitory concentration (IC50) of 9.2 nM.
With `Cc1c([C@@H](C)Nc2nnc(N3CCN(C)CC3)c3cc(=O)n(C4CC4)cc23)cccc1C(F)(F)F` [Example 86, (R)-6-cyclopropyl-4-((1-(2-methyl-3-(trifluoromethyl)phenyl)ethyl)amino)-1-(4-methylpiperazin-1-yl)pyrido[3,4-d]pyridazin-7(6H)-one] the figure was 3.6 nM.
Consider `Cc1c(C#N)cccc1[C@@H](C)Nc1nnc(N2CCC(F)(F)C2)c2cc(=O)n(C3CC3)cc12` [Example 42, (R)-3-(1-((6-cyclopropyl-1-(3,3-difluoropyrrolidin-1-yl)-7-oxo-6,7-dihydropyrido[3,4-d]pyridazin-4-yl)amino)ethyl)-2-methylbenzonitrile], for which the IC50 came out at 51.3 nM.
`CCN(CC)c1nnc(N[C@H](C)c2cccc(C(F)(F)F)c2C)c2cn(C3CC3)c(=O)cc12` [Example 53, (R)-6-cyclopropyl-1-(diethylamino)-4-((1-(2-methyl-3-(trifluoromethyl)phenyl)ethyl)amino)pyr ido[3,4-d]pyridazin-7(6H)-one] displayed an IC50 of 24.7 nM.
In turn, `CC(C)N1CCN(c2nnc(N[C@H](C)c3cccc(C(F)F)c3F)c3cn(N4CC5CCCC5C4)c(=O)cc23)CC1` (stereo partly drawn) [Example 149, 4-(((R)-1-(3-(difluoromethyl)-2-fluorophenyl)ethyl)amino)-6-(hexahydrocyclopenta[c]pyrrol-2(1H)-yl)-1-(4-isopropylpiperazin-1-yl)pyrido[3,4-d]pyridazin-7(6H)-one] came in with an IC50 of 8.6 nM. Compared with the last molecule, the IC50 is about 2.9-fold lower.
Take `C[C@@H](Nc1nnc(N2CCC[C@H](CO)C2)c2cc(=O)n(C3(C)CC3)cc12)c1cccc2c1CCC2(F)F` [Example 207, 4-(((R)-1-(1,1-difluoro-2,3-dihydro-1H-inden-4-yl)ethyl)amino)-1-((S)-3-(hydroxymethyl)piperidin-1-yl)-6-(1-methylcyclopropyl) pyrido[3,4-d]pyridazin-7(6H)-one]: 7.3 nM corresponded to half-maximal inhibition (IC50).
Molecule `CCN(CC)c1nnc(N[C@H](C)c2cccc(C(F)(F)F)c2C)c2cn(C3(C)CC3)c(=O)cc12` [Example 60, (R)-1-(diethylamino)-4-((1-(2-methyl-3-(trifluoromethyl)phenyl)ethyl)amino)-6-(1-methylcyclopropyl) pyrido[3,4-d]pyridazin-7(6H)-one] yielded an IC50 of 20.9 nM.
`CC(C)n1cc2c(N[C@H](C)c3cccc(C(F)F)c3F)nnc(N3CCN(C)CC3)c2cc1=O` [Example 114, (R)-4-((1-(3-(difluoromethyl)-2-fluorophenyl)ethyl)amino)-6-isopropyl-1-(4-methylpiperazin-1-yl)pyrido[3,4-d]pyridazin-7(6H)-one formate] came in with an IC50 of 6 nM.
Consider `Cc1c([C@@H](C)Nc2nnc(N3CCC(F)(F)CC3)c3cc(=O)n(C4(C)CC4)cc23)cccc1C(F)(F)F` [Example 65, (R)-1-(4,4-difluoropiperidin-1-yl)-4-((1-(2-methyl-3-(trifluoromethyl)phenyl)ethyl)amino)-6-(1-methylcyclopropyl) pyrido[3,4-d]pyridazin-7(6H)-one], for which the IC50 worked out at 61 nM.
